Assay results reported in ChEMBL document CHEMBL1201862, “PubChem BioAssay data set” (2004).
Active and inactive are the calls of the source.

Assays:
[1] = Luminescence Cell-Based Dose Retest to Confirm Inhibitors of Cancer Stem Cells. [Related pubchem assays (depositor defined):AID2717, AID2721]; type: functional; settings: Homo sapiens
[2] = NIH-3T3 fibroblast cytotoxicity, dose response, cytotoxicity control, cell-based, fluorescence, Alamar Blue, secondary assay (AID 2327); type: functional;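 further: NIH-3T3 mouse fibroblasts cultured with fluconazole at 8 µg/mL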
[3] = C. albicans growth with fluconazole, confirmation, fluorescence, retest (AID 2467); type: functional, cell-based
[4] = target: T1, Leucine aminopeptidase (Plasmodium falciparum 3D7, UniProt Q8IL11); assay: P. falciparum M17LAP inhibitors, primary screen, biochemical, fluorogenic H-Leu-NHMec substrate, 1536-well (AID 1619); type: functional
T1 sequence (Q8IL11 whole entry): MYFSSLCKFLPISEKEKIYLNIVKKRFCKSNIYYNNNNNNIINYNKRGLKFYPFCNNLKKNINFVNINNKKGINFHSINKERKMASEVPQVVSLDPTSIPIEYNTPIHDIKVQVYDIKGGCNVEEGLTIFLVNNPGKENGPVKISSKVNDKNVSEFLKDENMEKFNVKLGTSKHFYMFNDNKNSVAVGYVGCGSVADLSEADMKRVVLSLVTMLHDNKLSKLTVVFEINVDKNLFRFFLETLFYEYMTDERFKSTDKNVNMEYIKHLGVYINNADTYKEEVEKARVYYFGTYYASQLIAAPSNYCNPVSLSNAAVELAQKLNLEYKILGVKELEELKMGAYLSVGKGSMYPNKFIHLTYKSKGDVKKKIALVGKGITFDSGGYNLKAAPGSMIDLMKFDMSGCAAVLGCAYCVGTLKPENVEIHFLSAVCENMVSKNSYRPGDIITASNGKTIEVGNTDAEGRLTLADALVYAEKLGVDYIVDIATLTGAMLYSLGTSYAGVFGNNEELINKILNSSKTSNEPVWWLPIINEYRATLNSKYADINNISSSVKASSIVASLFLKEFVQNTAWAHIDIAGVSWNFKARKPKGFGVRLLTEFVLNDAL

[5] = target: Cytochrome P450 3A4 (Homo sapiens, UniProt P08684);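 further: CYP3A4 tested as one member of a cytochrome P450 panel screen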
[6] = target: Cytochrome P450 2D6 (Homo sapiens, UniProt P10635);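 further: CYP2D6 member of a cytochrome P450 panel assay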
[7] = target: T2, Calpain-2 catalytic subunit (Sus scrofa, UniProt P43367); assay: pig calpain II inhibitor potency, dose response, biochemical, fluorogenic peptide substrate (AID 1420); type: functional
T2 sequence (P43367 whole entry): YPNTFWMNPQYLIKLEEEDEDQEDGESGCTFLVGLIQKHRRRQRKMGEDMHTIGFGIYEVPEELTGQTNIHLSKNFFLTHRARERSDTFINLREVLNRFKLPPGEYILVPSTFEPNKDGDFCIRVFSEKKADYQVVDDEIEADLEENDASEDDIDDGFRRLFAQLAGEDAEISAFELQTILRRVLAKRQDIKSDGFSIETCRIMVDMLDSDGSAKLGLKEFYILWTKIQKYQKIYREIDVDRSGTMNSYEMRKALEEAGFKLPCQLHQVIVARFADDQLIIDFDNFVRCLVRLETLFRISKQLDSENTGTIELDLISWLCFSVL

[8] = target: Cytochrome P450 2C9 (Homo sapiens, UniProt P11712)
[9] = target: T3, Cytochrome P450 1A2 (Homo sapiens, UniProt P05177);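 further: PubChem cytochrome P450 panel assay, CYP1A2 panel member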
T3 sequence (P05177 whole entry): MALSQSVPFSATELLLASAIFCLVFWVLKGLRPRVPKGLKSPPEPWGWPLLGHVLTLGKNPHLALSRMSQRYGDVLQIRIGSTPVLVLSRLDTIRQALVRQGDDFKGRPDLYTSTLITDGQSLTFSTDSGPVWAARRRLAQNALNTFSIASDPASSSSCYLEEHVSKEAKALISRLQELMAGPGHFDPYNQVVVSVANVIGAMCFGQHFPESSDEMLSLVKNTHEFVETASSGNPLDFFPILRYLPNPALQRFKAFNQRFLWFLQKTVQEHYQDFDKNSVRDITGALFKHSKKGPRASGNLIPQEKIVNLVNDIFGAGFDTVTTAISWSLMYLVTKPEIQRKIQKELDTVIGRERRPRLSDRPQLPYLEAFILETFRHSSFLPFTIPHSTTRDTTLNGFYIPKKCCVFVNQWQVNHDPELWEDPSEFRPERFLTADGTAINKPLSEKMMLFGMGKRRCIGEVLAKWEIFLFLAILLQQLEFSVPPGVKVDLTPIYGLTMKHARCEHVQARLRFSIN

[10] = tested on: INS1; assay: beta cell apoptosis inhibitors, cytokine rescue, dose response, luminescence, retest (AID 449756); type: functional, cell-based; settings: Rattus norvegicus;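 further: cell death triggered by IL-1 beta plus TNF-alpha plus IFN-gamma mixture; protective hits raise ATP signal compared with cytokine alone wells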
[11] = Shn3 3'UTR reporter inhibitors, dose response, cell-based, Clone20 osteoblasts, firefly luciferase, cherry-picked (AID 624132); type: functional;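 further: firefly luciferase luminescence from reporter carrying the Shn3 3'UTR in osteoblasts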
[12] = tested on: Streptococcus; assay: Group A Streptococcus viability loss, dose response, counter-screen for streptokinase expression inhibitor project, luminescence, BacTiterGlo (AID 1915); type: functional, organism-based;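 further: potency for reduction of bacterial viability or growth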
[13] = tested on: Streptococcus sp. 'group A'; assay: growth inhibition of control SK(-) GAS strain, dose response, counter-screen for streptokinase expression inhibitor project, luminescence, kanamycin, BacTiterGlo, confirmation (AID 1900); type: functional, organism-based
[14] = target: T4, Streptokinase A (Streptococcus pyogenes serotype M1, UniProt P10520); assay: S. pyogenes streptokinase expression inhibitors, potency, dose response, plasminogen activation absorbance, OD405 (AID 1914); type: functional, Streptococcus pyogenes M1 GAS;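 further: secreted streptokinase activity via plasminogen activation per viability signal from cell pellet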
T4 sequence (P10520 whole entry): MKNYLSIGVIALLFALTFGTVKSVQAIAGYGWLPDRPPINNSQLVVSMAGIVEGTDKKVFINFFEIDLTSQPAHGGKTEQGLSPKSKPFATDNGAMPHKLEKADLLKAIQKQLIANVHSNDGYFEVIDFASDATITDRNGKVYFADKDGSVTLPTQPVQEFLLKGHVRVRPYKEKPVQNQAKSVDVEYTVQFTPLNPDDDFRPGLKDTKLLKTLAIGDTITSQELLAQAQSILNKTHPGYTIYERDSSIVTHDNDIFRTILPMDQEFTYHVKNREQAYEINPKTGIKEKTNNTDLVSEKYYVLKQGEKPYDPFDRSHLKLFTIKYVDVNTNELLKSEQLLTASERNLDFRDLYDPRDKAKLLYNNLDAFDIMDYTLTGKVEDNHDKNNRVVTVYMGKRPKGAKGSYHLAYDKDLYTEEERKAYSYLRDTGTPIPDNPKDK

[15] = target: T5, Heat shock factor protein 1 (Mus musculus, UniProt P38532); assay: HSF1 potentiators in luciferase reporter cells, confirmation, cell-based, NIH3T3, luminescence, dose retest (AID 435004); type: functional;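 further: stress induced by proteasome inhibitor MG132 added 30 min after compound; luciferase reporter driven by HSF1 response element in NIH3T3 cells; actives raise luminescence as potentiators of the MG132 stress response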
T5 sequence (P38532 whole entry): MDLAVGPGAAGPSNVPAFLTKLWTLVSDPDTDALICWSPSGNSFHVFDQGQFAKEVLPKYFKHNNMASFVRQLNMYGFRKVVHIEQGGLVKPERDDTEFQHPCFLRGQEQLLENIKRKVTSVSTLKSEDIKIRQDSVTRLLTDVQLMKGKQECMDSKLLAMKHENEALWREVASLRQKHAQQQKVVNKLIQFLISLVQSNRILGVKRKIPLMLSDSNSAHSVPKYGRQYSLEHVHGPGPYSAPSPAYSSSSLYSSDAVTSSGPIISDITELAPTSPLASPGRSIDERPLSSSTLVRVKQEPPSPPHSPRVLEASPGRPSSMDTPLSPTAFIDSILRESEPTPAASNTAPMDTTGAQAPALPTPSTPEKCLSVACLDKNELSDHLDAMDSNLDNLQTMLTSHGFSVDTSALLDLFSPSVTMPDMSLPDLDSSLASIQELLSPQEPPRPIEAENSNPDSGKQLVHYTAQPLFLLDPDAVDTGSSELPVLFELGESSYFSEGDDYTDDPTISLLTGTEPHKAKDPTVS

[16] = P. falciparum Dd2 growth inhibitors, dose response, SYBR Green, cherry-picked samples (AID 1159567); type: functional, cell-based

Chain of Cytochrome P450 2C9 (P11712 whole entry): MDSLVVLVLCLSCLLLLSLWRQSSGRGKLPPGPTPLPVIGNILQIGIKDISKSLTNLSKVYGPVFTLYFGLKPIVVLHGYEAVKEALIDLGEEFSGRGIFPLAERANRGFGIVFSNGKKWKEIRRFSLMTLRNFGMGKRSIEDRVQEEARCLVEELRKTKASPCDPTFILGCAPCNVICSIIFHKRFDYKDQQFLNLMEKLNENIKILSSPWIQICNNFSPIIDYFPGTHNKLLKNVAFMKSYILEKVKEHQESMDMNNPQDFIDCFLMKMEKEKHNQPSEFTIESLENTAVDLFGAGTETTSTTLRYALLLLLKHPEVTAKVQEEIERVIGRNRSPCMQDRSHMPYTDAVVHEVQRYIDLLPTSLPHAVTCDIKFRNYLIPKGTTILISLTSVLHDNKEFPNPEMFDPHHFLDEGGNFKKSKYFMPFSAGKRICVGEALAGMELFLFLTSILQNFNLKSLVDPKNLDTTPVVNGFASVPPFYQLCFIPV
Chain of Cytochrome P450 2D6 (P10635 whole entry): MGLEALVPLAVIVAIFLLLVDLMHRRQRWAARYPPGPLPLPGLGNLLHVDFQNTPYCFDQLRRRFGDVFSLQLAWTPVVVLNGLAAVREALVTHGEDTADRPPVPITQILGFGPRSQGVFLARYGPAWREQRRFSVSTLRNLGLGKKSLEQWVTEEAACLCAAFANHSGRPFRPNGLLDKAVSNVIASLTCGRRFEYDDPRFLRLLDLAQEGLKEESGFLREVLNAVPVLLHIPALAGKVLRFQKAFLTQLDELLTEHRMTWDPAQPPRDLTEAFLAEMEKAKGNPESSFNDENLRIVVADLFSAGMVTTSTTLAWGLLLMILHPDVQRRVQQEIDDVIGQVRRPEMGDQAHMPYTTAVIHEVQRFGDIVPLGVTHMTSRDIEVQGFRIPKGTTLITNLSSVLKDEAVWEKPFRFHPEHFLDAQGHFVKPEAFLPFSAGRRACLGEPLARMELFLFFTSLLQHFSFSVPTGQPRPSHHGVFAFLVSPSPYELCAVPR
Chain of Cytochrome P450 3A4 (P08684 whole entry): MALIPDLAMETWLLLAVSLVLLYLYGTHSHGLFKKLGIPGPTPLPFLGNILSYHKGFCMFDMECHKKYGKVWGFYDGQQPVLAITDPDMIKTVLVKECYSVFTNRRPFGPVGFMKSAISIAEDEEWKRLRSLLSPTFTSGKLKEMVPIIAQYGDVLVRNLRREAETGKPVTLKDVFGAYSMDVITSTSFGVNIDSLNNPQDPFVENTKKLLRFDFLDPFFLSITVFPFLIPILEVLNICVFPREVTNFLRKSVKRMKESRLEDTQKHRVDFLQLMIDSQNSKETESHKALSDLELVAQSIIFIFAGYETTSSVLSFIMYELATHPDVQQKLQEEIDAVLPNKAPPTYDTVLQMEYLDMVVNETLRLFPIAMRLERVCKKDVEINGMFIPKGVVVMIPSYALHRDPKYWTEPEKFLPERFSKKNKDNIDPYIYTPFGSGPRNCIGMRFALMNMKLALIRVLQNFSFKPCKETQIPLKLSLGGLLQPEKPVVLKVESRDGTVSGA

With NCC(c1ccc(Cl)cc1Cl)c1c[nH]c2ccccc12 (stereo not drawn) the AC50 [1] was 8.89 µM (active), the EC50 [2] was 26.2 µM (active) and the EC50 [3] was > 38 µM (not active).

With Cc1ccc(S(=O)(=O)NC(=O)CSc2nc3ccccc3s2)cc1 the IC50 [4] was 7.77 µM (active) and the AC50 [5] was 14.1 µM (inconclusive).

With O=C(Nc1ccc(C(=O)O)cc1)Nc1cccc([N+](=O)[O-])c1 the IC50 [4] was 16.1 µM (active).

With COc1ccc2[nH]cc(CCNc3ccnc(-c4ccc(C(=O)N(C)C)cc4)n3)c2c1 the AC50 [6] was 25.1 µM (inconclusive).

In the case of CC(C)(C)OC(=O)NCCCC[C@H](NC(=O)c1nc[nH]c1C(=O)N[C@@H](CCCCNC(=O)OC(C)(C)C)C(=O)OC(C)(C)C)C(=O)OC(C)(C)C, the IC50 [7] is reported as 3.89 µM (not active).

For CN=C(S)NNC(=O)c1ccccc1F, the IC50 [7] was 17.7 µM (not active).

In the case of C=CCn1c(SCC(=O)c2ccc(NS(=O)(=O)c3ccccc3)cc2)nnc1-c1cccs1, the IC50 [4] is reported as 14.7 µM (active).

In the case of CCOC(=O)c1ccccc1NC(=O)c1cccc([N+](=O)[O-])c1, the EC50 [2] is reported as > 150 µM (inactive) and the EC50 [3] is reported as > 38 µM (not active).

With CN(C)c1ccc(-c2nc(Nc3ccncc3)c3ccccc3n2)cc1 the AC50 [8] was 0.794 µM (inconclusive) and the AC50 [6] was 25.1 µM (inconclusive).

In the case of O=C(CSc1nc[nH]n1)N1N=C2/C(=C/c3ccco3)CCCC2C1c1ccco1 (stereo not drawn), the IC50 [4] is reported as 2.11 µM (active).

For Cc1ccc(Nc2nc(-c3sc(NC(=O)c4ccc([N+](=O)[O-])cc4)nc3C)cs2)cc1, the AC50 [9] was 2.24 µM (inconclusive) and the AC50 [6] was 0.01 µM (inconclusive).

For O=C(Oc1c(CN2CCOCC2)cc(Cl)c2cccnc12)c1ccccc1, the AC50 [10] was 4.16 µM (active), the EC50 [2] was > 150 µM (inactive) and the EC50 [3] was 3.71 µM (active).

In the case of CCN(CC)C(=S)Sc1c(O)nc2ccc(Cl)cc2c1-c1ccccc1, the AC50 [11] is reported as 27 µM (active), the EC50 [12] is reported as 1.8 µM (active) and the EC50 [13] is reported as 0.831 µM (active).

In the case of CN(C)c1ccc(-c2nc(NC3CCNCC3)c3ccccc3n2)cc1, the AC50 [6] is reported as 39.8 µM (inconclusive) and the AC50 [5] is reported as 31.6 µM (inconclusive).

With COc1ccccc1NC(=O)CSc1nc[nH]n1 the IC50 [4] was 36.8 µM (active).

With Cc1cc(C)c(C(=O)COC(=O)CCNS(=O)(=O)c2c(Cl)cccc2Cl)cc1C the IC50 [7] was 4.97 µM (not active).

In the case of Cn1c(N)c(C(=O)COC(=O)CCC2CCCCC2)c(=O)n(C)c1=O, the IC50 [7] is reported as 5.23 µM (active).

With CCCCC(CC)C(=O)Oc1ccc(O)c(C(C)(C)C)c1 (stereo not drawn) the EC50 [14] was 4.96 µM (active), the EC50 [12] was 7.84 µM (active) and the EC50 [13] was 3.2 µM (active). The IC50 [7] was 13.5 µM (not active).

In the case of CCOc1ccc(NC(=O)C2CC(C)=C(C)CC2C(=O)O)cc1 (stereo not drawn), the IC50 [4] is reported as 21.3 µM (active).

For COc1cc(N/C=C(\C(C)=O)c2ccccc2)cc(OC)c1, the IC50 [7] was > 50 µM (not active).

With CCCn1c(N)c(C(=O)COC(=O)c2c(C)noc2C)c(=O)n(C)c1=O the EC50 [2] was > 150 µM (inactive) and the EC50 [3] was > 38 µM (not active).

For COC(=O)c1c(C(=O)OC)c(-c2ccc(Cl)c(Cl)c2)n2c1CCC2, the EC50 [2] was > 160 µM (inactive) and the EC50 [3] was > 38 µM (not active).

In the case of O=C(NCCc1c[nH]c2ccccc12)OCCSS(=O)(=O)O, the IC50 [4] is reported as 21.8 µM (active).

For Cc1nc(Nc2ccccc2)sc1C(=O)c1ccccc1, the IC50 [7] was 3.41 µM (not active).

With O=C1CCC(c2ccccc2)=NN1c1nc2ccccc2s1 the AC50 [8] was 3.98 µM (inconclusive) and the AC50 [6] was 3.98 µM (inconclusive).

In the case of COc1ccc(CNc2nc(-c3ccc4c(c3)OCO4)nc3ccccc23)c(OC)c1, the AC50 [8] is reported as 0.501 µM (inconclusive) and the AC50 [6] is reported as 12.6 µM (inconclusive).

With COc1ccc(NC(=O)CN2C(=O)C(C)SC(C)C2=O)cc1 (stereo not drawn) the IC50 [4] was 12.2 µM (active).

For S=C(NCc1ccco1)N/N=C/c1ccc(Cl)cc1, the IC50 [7] was 6.94 µM (not active) and the EC50 [15] was > 260 µM (inactive).

With O=C(N/N=C\c1cccc(Br)c1)c1ccccc1-n1cccc1 the IC50 [7] was > 50 µM (not active).

With CO[C@H]1CN(C)C(=O)c2ccc(NC(=O)Nc3cc(F)ccc3F)cc2OC[C@@H](C)N(C)C[C@H]1C the AC50 [16] was 11.4 µM (active).

For C[C@H](CO)N1C[C@H](C)[C@H](CN(C)S(=O)(=O)c2ccccc2F)OCc2ccccc2-c2c(n(C)c3ccccc23)C1=O, the AC50 [16] was 3.61 µM (active).

For C[C@H]1CN([C@@H](C)CO)S(=O)(=O)c2ccc(C#Cc3ccncc3)cc2O[C@H]1CN(C)S(=O)(=O)c1ccc(F)cc1, the AC50 [16] was 4.11 µM (active).

In the case of COc1ccc2c3c([nH]c2c1)[C@@H](CO)N(Cc1cccc(F)c1)CC31CCN(C(C)=O)CC1, the AC50 [16] is reported as 5.78 µM (active).

For COc1ccc(S(=O)(=O)N(C)C[C@H]2Oc3c(NC(=O)Nc4ccc5c(c4)OCO5)cccc3C(=O)N([C@@H](C)CO)C[C@H]2C)cc1, the AC50 [16] was 4.41 µM (active).
